Test system: 598228-144-R-J1-PDC complex spheroid viability
Test: Anticancer human tumor 598228-144-R-J1-PDC patient-derived serous endometrial adenocarcinoma cell line growth inhibition [GQUAD]
Conditions: for IC50: curve of first compound; for viability, T/C: stronger effect = lower value; active means viability on the fitted dose curve at most 10% of control; inactive means the rest
How it was run: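 Multi-cell-type spheroids of tumor cells with HUVEC and mesenchymal stem cells, treated with drug combinations. Concentrations descend in half-log steps from near clinical Cmax, or from 10 microM where Cmax is unknown; viability read-out.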

[1] = second compound 0.0316 µM, first compound 0.0316 µM
[2] = second compound 0.0316 µM, first compound 0.1 µM
[3] = second compound 0.0316 µM, first compound 0.316 µM
[4] = second compound 0.0316 µM, first compound 1 µM
[5] = second compound 0.0316 µM, first compound 3.16 µM
[6] = second compound 0.0316 µM, first compound 10 µM
[7] = second compound 0.1 µM, first compound 0.0316 µM
[8] = second compound 0.1 µM, first compound 0.1 µM
[9] = second compound 0.1 µM, first compound 0.316 µM
[10] = second compound 0.1 µM, first compound 1 µM
[11] = second compound 0.1 µM, first compound 3.16 µM
[12] = second compound 0.1 µM, first compound 10 µM
[13] = second compound 0.316 µM, first compound 0.0316 µM
[14] = second compound 0.316 µM, first compound 0.1 µM
[15] = second compound 0.316 µM, first compound 0.316 µM
[16] = second compound 0.316 µM, first compound 1 µM
[17] = second compound 0.316 µM, first compound 3.16 µM
[18] = second compound 0.316 µM, first compound 10 µM
[19] = second compound 1 µM, first compound 0.0316 µM
[20] = second compound 1 µM, first compound 0.1 µM
[21] = second compound 1 µM, first compound 0.316 µM
[22] = second compound 1 µM, first compound 1 µM
[23] = second compound 1 µM, first compound 3.16 µM
[24] = second compound 1 µM, first compound 10 µM
[25] = second compound 3.16 µM, first compound 0.0316 µM
[26] = second compound 3.16 µM, first compound 0.1 µM
[27] = second compound 3.16 µM, first compound 0.316 µM
[28] = second compound 3.16 µM, first compound 1 µM
[29] = second compound 3.16 µM, first compound 3.16 µM
[30] = second compound 3.16 µM, first compound 10 µM
[31] = second compound 10 µM, first compound 0.0316 µM
[32] = second compound 10 µM, first compound 0.1 µM
[33] = second compound 10 µM, first compound 0.316 µM
[34] = second compound 10 µM, first compound 1 µM
[35] = second compound 10 µM, first compound 3.16 µM
[36] = second compound 10 µM, first compound 10 µM
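Further: spheroids exposed to the agents for one week before reading.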
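Wherever viability, T/C is given: percent of vehicle DMSO control viability so 100% = untreated growth.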

O=c1[nH]cc(F)c(=O)[nH]1 + Cc1cnc(CNC(=O)c2c(=O)c3ccc(N4CCCN(C)CC4)nc3n3c2sc2ccccc23)cn1
> 10 µM: IC50 (second compound 0.0316 µM) | IC50 (second compound 0.1 µM) | IC50 (second compound 0.316 µM) | IC50 (second compound 1 µM) | IC50 (second compound 3.16 µM)
< 0.0316 µM: IC50 (second compound 10 µM)
inactive: viability, T/C [1] 101% | viability, T/C [2] 98.9% | viability, T/C [3] 85.3% | viability, T/C [4] 85.7% | viability, T/C [5] 89% | viability, T/C [6] 76% | viability, T/C [7] 69.2% | viability, T/C [8] 80.3% | viability, T/C [9] 69.9% | viability, T/C [10] 65.1% | viability, T/C [11] 97.9% | viability, T/C [12] 64.1% | viability, T/C [13] 69.7% | viability, T/C [14] 77.8% | viability, T/C [15] 72.4% | viability, T/C [16] 66.3% | viability, T/C [17] 65.1% | viability, T/C [18] 55.5% | viability, T/C [19] 61.2% | viability, T/C [20] 54.3% | viability, T/C [21] 63.5% | viability, T/C [22] 68.4% | viability, T/C [23] 73.8% | viability, T/C [24] 60.3% | viability, T/C [25] 56.1% | viability, T/C [26] 59.2% | viability, T/C [27] 56% | viability, T/C [28] 46.1% | viability, T/C [29] 67.9% | viability, T/C [30] 52.2% | viability, T/C [31] 44.5% | viability, T/C [32] 49.6% | viability, T/C [33] 48.3% | viability, T/C [34] 53.1% | viability, T/C [35] 59.8% | viability, T/C [36] 51.9%

C#Cc1c(F)ccc2cc(O)cc(-c3ncc4c(N5CC6CCC(C5)N6)nc(OCC56CCCN5CC(F)C6)nc4c3F)c12 (stereo unspecified) + Cc1[nH]c2ccc(F)cc2c1-c1nc2c3cccnc3c3ncccc3c2[nH]1
< 0.0316 µM: IC50 (second compound 3.16 µM)
inactive: viability, T/C [1] 124% | viability, T/C [2] 88.7% | viability, T/C [3] 120% | viability, T/C [4] 100% | viability, T/C [5] 114% | viability, T/C [6] 111% | viability, T/C [7] 121% | viability, T/C [8] 126% | viability, T/C [9] 97.2% | viability, T/C [10] 107% | viability, T/C [11] 143% | viability, T/C [12] 130% | viability, T/C [13] 93.7% | viability, T/C [14] 87.4% | viability, T/C [15] 87.9% | viability, T/C [16] 102% | viability, T/C [17] 115% | viability, T/C [18] 98.7% | viability, T/C [19] 74.7% | viability, T/C [20] 59.1% | viability, T/C [21] 54.3% | viability, T/C [22] 59.7% | viability, T/C [23] 71.9% | viability, T/C [24] 62% | viability, T/C [25] 37% | viability, T/C [26] 51.8% | viability, T/C [27] 44.6% | viability, T/C [28] 40.2% | viability, T/C [29] 44.2% | viability, T/C [30] 31.9% | viability, T/C [31] 69.2% | viability, T/C [32] 62.3% | viability, T/C [33] 64.3% | viability, T/C [34] 58.3% | viability, T/C [35] 60% | viability, T/C [36] 52.8%
> 10 µM: IC50 (second compound 0.0316 µM) | IC50 (second compound 0.1 µM) | IC50 (second compound 0.316 µM) | IC50 (second compound 1 µM) | IC50 (second compound 10 µM)

Cc1[nH]c2ccccc2c1CCNCc1ccc(/C=C/C(=O)NO)cc1 + Cc1cnc(CNC(=O)c2c(=O)c3ccc(N4CCCN(C)CC4)nc3n3c2sc2ccccc23)cn1
< 0.000999 µM: IC50 (second compound 3.16 µM) | IC50 (second compound 10 µM)
inactive: viability, T/C (second compound 0.0316 µM, first compound 0.000999 µM) 104% | viability, T/C (second compound 0.0316 µM, first compound 0.00316 µM) 116% | viability, T/C (second compound 0.0316 µM, first compound 0.00999 µM) 85.1% | viability, T/C [1] 67.3% | viability, T/C (second compound 0.0316 µM, first compound 0.0999 µM) 32.4% | viability, T/C (second compound 0.1 µM, first compound 0.000999 µM) 80.7% | viability, T/C (second compound 0.1 µM, first compound 0.00316 µM) 71.8% | viability, T/C (second compound 0.1 µM, first compound 0.00999 µM) 61.1% | viability, T/C [7] 41.6% | viability, T/C (second compound 0.1 µM, first compound 0.0999 µM) 26.2% | viability, T/C (second compound 0.316 µM, first compound 0.000999 µM) 69% | viability, T/C (second compound 0.316 µM, first compound 0.00316 µM) 66.9% | viability, T/C (second compound 0.316 µM, first compound 0.00999 µM) 53.3% | viability, T/C [13] 43.7% | viability, T/C (second compound 0.316 µM, first compound 0.0999 µM) 18.4% | viability, T/C (second compound 1 µM, first compound 0.000999 µM) 62.7% | viability, T/C (second compound 1 µM, first compound 0.00316 µM) 67.1% | viability, T/C (second compound 1 µM, first compound 0.00999 µM) 49.7% | viability, T/C [19] 29.8% | viability, T/C (second compound 3.16 µM, first compound 0.000999 µM) 49.4% | viability, T/C (second compound 3.16 µM, first compound 0.00316 µM) 49.4% | viability, T/C (second compound 3.16 µM, first compound 0.00999 µM) 39.9% | viability, T/C (second compound 10 µM, first compound 0.000999 µM) 20.6% | viability, T/C (second compound 10 µM, first compound 0.00316 µM) 16.2%
0.0161 µM: IC50 (second compound 0.316 µM)
active: viability, T/C [3] 0.76% | viability, T/C [9] 0.82% | viability, T/C [15] 0.28% | viability, T/C (second compound 1 µM, first compound 0.0999 µM) 0.26% | viability, T/C [21] 0.37% | viability, T/C [25] 0.32% | viability, T/C (second compound 3.16 µM, first compound 0.0999 µM) 0.34% | viability, T/C [27] 0.25% | viability, T/C (second compound 10 µM, first compound 0.00999 µM) 0.43% | viability, T/C [31] 0.33% | viability, T/C (second compound 10 µM, first compound 0.0999 µM) 0.34% | viability, T/C [33] 0.31%
0.0202 µM: IC50 (second compound 0.1 µM)
0.0116 µM: IC50 (second compound 1 µM)
0.0544 µM: IC50 (second compound 0.0316 µM)

Reference: PubChem BioAssay AID2060506 (Molecular Pharmacology Branch, DTP, NCI, 2025)
